# According to ChEMBL document CHEMBL1201862, “PubChem BioAssay data set” (2004):
#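 How tested: cells in 96-well plates exposed to compound for 48 hours at five concentrations. GI50 marks 50% less growth.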 The source made the active and inactive calls. Rule as the data show it: active = GI50 up to about 1.1 µM and inactive = higher.
# Key:
# Assay in all cases: inhibition of tumour cell growth, NCI panel, 48 h
# [1] = test system: 786-0
# [2] = test system: A549
# [3] = test system: HCT-15
# [4] = test system: IGROV-1
# [5] = test system: LOX IMVI
# [6] = test system: Malme-3M
# [7] = test system: NCI-H226
# [8] = test system: NCI-H522
# [9] = test system: OVCAR-5
# [10] = test system: OVCAR-8
# [11] = test system: PC-3
# [12] = test system: SF-268
# [13] = test system: SK-MEL-2
# [14] = test system: SK-MEL-5
# [15] = test system: SNB-19
# [16] = test system: TK-10
# [17] = test system: UACC-62
# [18] = test system: UO-31
# [19] = test system: NCI-H23
# [20] = test system: OVCAR-4
SMILES,GI50 [1],GI50 [2],GI50 [3] [µM],GI50 [4],GI50 [5],GI50 [6],GI50 [7],GI50 [8],GI50 [9],GI50 [10],GI50 [11],GI50 [12],GI50 [13],GI50 [14],GI50 [15],GI50 [16],GI50 [17],GI50 [18],GI50 [19],GI50 [20]
Cc1c(C)c(C)c(CC2(C)CSC2)c(CC2(C)CSC2)c1C,> 100 µM (inactive),> 100 µM (inactive),> 100,> 100 µM (inactive),> 100 µM (inactive),> 100 µM (inactive),> 100 µM (inactive),> 100 µM (inactive),> 100 µM (inactive),> 100 µM (inactive),> 100 µM (inactive),> 100 µM (inactive),> 100 µM (inactive),> 100 µM (inactive),> 100 µM (inactive),> 100 µM (inactive),> 100 µM (inactive),> 100 µM (inactive),,
COC(=O)c1ccc(CCC2=CC(=O)C=CC2=O)cc1,2.41 µM (inactive),23.5 µM (inactive),5.52,14.6 µM (inactive),6.4 µM (inactive),,16.7 µM (inactive),1.62 µM (inactive),18.2 µM (inactive),17.4 µM (inactive),12.1 µM (inactive),15 µM (inactive),16.4 µM (inactive),12.9 µM (inactive),22.4 µM (inactive),19 µM (inactive),13.7 µM (inactive),7.36 µM (inactive),17.9 µM (inactive),17.7 µM (inactive)
N=c1c2ccccc2nc2oc3ccccc3n12,> 10 µM (inactive),33.8 µM (inactive),> 100,20.6 µM (inactive),53.8 µM (inactive),41.1 µM (inactive),,,45.3 µM (inactive),37.5 µM (inactive),85.1 µM (inactive),14.9 µM (inactive),37.5 µM (inactive),15.5 µM (inactive),25.5 µM (inactive),28.4 µM (inactive),28.6 µM (inactive),> 100 µM (inactive),35.2 µM (inactive),29 µM (inactive)
CC(=O)Oc1ccc2c(c1)Oc1cc(C(C)=O)ccc1C21OC(=O)c2ccccc21 (centres undefined),> 100 µM (inactive),> 100 µM (inactive),> 100,85.5 µM (inactive),> 100 µM (inactive),> 100 µM (inactive),,> 100 µM (inactive),> 100 µM (inactive),> 100 µM (inactive),> 100 µM (inactive),1.8 µM (inactive),> 100 µM (inactive),> 100 µM (inactive),> 100 µM (inactive),> 100 µM (inactive),> 100 µM (inactive),85.5 µM (inactive),> 100 µM (inactive),> 100 µM (inactive)
C/C=C(\C)C(=O)OC1CC(OC(C)=O)C2(C(=O)OC)COC3C2C1(C)C1C2(C(=O)OC)OCC1(C3O)C1(O)C3CC(C4(O)C=COC4O3)C1(C)O2 (centres undefined),> 100 µM (inactive),> 100 µM (inactive),> 100,> 100 µM (inactive),> 100 µM (inactive),,> 100 µM (inactive),> 100 µM (inactive),> 100 µM (inactive),> 100 µM (inactive),> 100 µM (inactive),> 100 µM (inactive),> 100 µM (inactive),> 100 µM (inactive),,> 100 µM (inactive),> 100 µM (inactive),> 100 µM (inactive),> 100 µM (inactive),> 100 µM (inactive)
O=C1NC(O)CCN1C1CC(O)C(CO)O1 (centres undefined),> 100 µM (inactive),> 100 µM (inactive),> 100,> 100 µM (inactive),> 100 µM (inactive),> 100 µM (inactive),> 100 µM (inactive),> 100 µM (inactive),> 100 µM (inactive),> 100 µM (inactive),> 100 µM (inactive),> 100 µM (inactive),> 100 µM (inactive),> 100 µM (inactive),> 100 µM (inactive),> 100 µM (inactive),> 100 µM (inactive),> 100 µM (inactive),> 100 µM (inactive),
O=P(O)(O)C(N=C(Nc1ccccc1)Nc1ccccc1)P(=O)(O)O,> 100 µM (inactive),> 100 µM (inactive),> 100,> 100 µM (inactive),> 100 µM (inactive),> 100 µM (inactive),> 100 µM (inactive),> 100 µM (inactive),> 100 µM (inactive),> 100 µM (inactive),> 100 µM (inactive),> 100 µM (inactive),,> 100 µM (inactive),> 100 µM (inactive),> 100 µM (inactive),> 100 µM (inactive),> 100 µM (inactive),> 100 µM (inactive),
